# Laboratory results as given in PMC5844530, “Fosmetpantotenate (RE-024), a phosphopantothenate replacement therapy for pantothenate kinase-associated neurodegeneration: Mechanism of action and efficacy in nonclinical models” (PLoS ONE, 2018).
# “And” between values parts separate entries of the source, which are not always exact repeats. Equal entries are not always repeated.
# Tests used:
# [1] = Pharmacokinetics in whole blood, cynomolgus monkeys; conditions: blood; for AUC: single PO fosmetpantotenate 300 mg/kg, mean (individual values), N = 2, analyte = label; for Fosmetpantotenate Mean Conc. / Fosmetpantotenate blood concentration, Cyno #1 / Fosmetpantotenate blood concentration, Cyno #2 / concentration at 0.083 h / concentration at 0.167 h / concentration at 0.333 h / concentration at 0.5 h / concentration at 1 h / concentration at 2 h / concentration at 4 h: fosmetpantotenate 300 mg/kg oral; for concentration at 0.083 h / concentration at 0.167 h / concentration at 0.333 h / concentration at 0.5 h / concentration at 1 h / concentration at 2 h / concentration at 4 h: male
# [2] = Metabolic stability in rat liver microsomes; assay type: in vitro ADME; conditions: pooled liver microsomes
# Method: Metabolic stability in blood and liver microsomes: Fosmetpantotenate or its individual diastereomers (5 μM, n = 2, 37°C) were incubated in mouse, rat, cynomolgus monkey, and human whole blood. Samples (50 μL) were taken at 0, 5, 15, 30, and 60 min. Incubations of fosmetpantotenate or its individual diastereomers (1 μM, n = 2, 37°C) in pooled liver microsomes (0.25 mg protein/mL in 0.1 M phosphate buffer pH 7.4) were initiated with the addition of nicotinamide adenine dinucleotide phosphate (NADPH; 1 mM). Aliquots (100 μL) were obtained at 0, 5, 10, 20, and 40 min and added to 150 μL of 0.1% formic acid in acetonitrile-containing carbamazepine (0.5 μM) as an analytical internal standard, centrifuged, and the supernatants analyzed by LC-MS/MS.
# Bioanalysis for determinations of analyte stability: Samples were analyzed using a benchtop tandem quadrupole detector (TQD) mass spectrometer (Waters Ltd, Centennial Park, Hertfordshire). […] Suitable retention and peak shape with separation of the 2 diastereomers were obtained. The chromatography column was a Phenomenex-Kinetex XB C18 (2.10 x 50 mm; 2.6 μm), with a 0.7 mL/min flow rate and a 2 μL injection volume. […]
# The percent of compound remaining was determined from the MRM area response in each sample relative to that in the T = 0 samples (normalized for internal standard). […]
# [3] = Pharmacokinetics in whole blood, CD-1 mice; conditions: blood
# Method: The whole blood samples (0.5 mL) were collected into syringes that were prefilled with 2.5 mL of ice-cold 0.1% formic acid in acetonitrile. The volume ratio of the whole blood to 0.1% formic acid in acetonitrile was 1/5 (v/v). Samples were frozen (-70°C) until analyzed by LC-MS/MS.
# Standard curves and quality control (QC) samples were prepared fresh on the day of analysis by serial dilution of the standard mixture in quenched whole blood (1 part of blood to 5 parts of 0.1% formic acid in acetonitrile) and centrifuged. […] The frozen study samples were thawed in an ice/water bath and centrifuged. Supernatant (50 μL) from standards, QC samples, and study samples was transferred to a 96-well plate and dried completely under nitrogen. The dried residues were reconstituted with 100 μL of 0.1% formic acid in water containing internal standard (5 ng/mL of ^15N/^13C3-RE-024-02) and analyzed by LC-MS/MS.
# LC-MS/MS analysis for blood pharmacokinetic samples: Samples were analyzed using an Agilent 1100 binary pump (Agilent Technologies, Santa Clara, CA, USA), connected to an AB Sciex API 6500 mass spectrometer (SCIEX, Framingham, MA, USA). An electrospray ionization source was used, scanning in the positive mode. […] The chromatography column was a Varian Metasil AQ 120–5 C18 column, 5 μm, 50 x 2.00 mm (Part No. A0530050X020) at ambient temperature, with a 0.5 mL/min flow rate and a 20 μL injection volume. Mobile phase (A) consisted of 0.1% formic acid in water; while mobile phase (B) consisted of 0.1% formic acid in acetonitrile:water (9:1, v/v).
# Quantitation of in vivo samples: Peak areas were integrated using Analyst software (AB Sciex, Concord, Ontario, Canada). […] Calibration standards (at a minimum 7 per curve) were fit by linear regression with (1/x^2) weighting. QC samples were used (triplicate) at 3 concentrations for all tandem mass spectrometry (MS/MS) runs.
# Pharmacokinetic calculations: PK analysis was performed using Phoenix WinNonlin®, Build 6.3.0.395 (Certara, Princeton, NJ, USA) using a non-compartmental model (PO dose = model 200 for extravascular dosing). […] Post-dose concentrations below the limit of quantitation (BLQ) were omitted from calculation.
# [4] = male cynomolgus monkeys, 0.033 hr
# [5] = cynomolgus monkey, in vivo, 300 mg/kg, Fosmetpantotenate Mean Conc., male cynomolgus monkeys
# [6] = cynomolgus monkey, in vivo, 300 mg/kg, Fosmetpantotenate blood concentration, Cyno #1, male cynomolgus monkeys
# [7] = cynomolgus monkey, in vivo, 300 mg/kg, Fosmetpantotenate blood concentration, Cyno #2, male cynomolgus monkeys
smiles,measurement,setting,value
COC(=O)CCNC(=O)[C@H](O)C(C)(C)COP(=O)(N[C@@H](C)C(=O)OC)Oc1ccccc1 (mixture of isomers) [Fosmetpantotenate],AUC,[1],"34,400 (13000, 55800) nM*h"
same,AUC,"[1]; cynomolgus monkey, in vivo, po, 300 mg/kg, AUC",34 µM·h
same,Fosmetpantotenate Mean Conc.,"[1]; male cynomolgus monkeys, 0 hr",BQL
same,"Fosmetpantotenate blood concentration, Cyno #1","[1]; male cynomolgus monkeys, 0 hr",BQL
same,"Fosmetpantotenate blood concentration, Cyno #2","[1]; male cynomolgus monkeys, 0 hr",BQL
same,Fosmetpantotenate Mean Conc.,[1]; [4],BQL
same,"Fosmetpantotenate blood concentration, Cyno #1",[1]; [4],BQL
same,"Fosmetpantotenate blood concentration, Cyno #2",[1]; [4],BQL
same,Fosmetpantotenate Mean Conc.,"[1]; male cynomolgus monkeys, 8 hr",BQL
same,"Fosmetpantotenate blood concentration, Cyno #1","[1]; male cynomolgus monkeys, 8 hr",BQL
same,"Fosmetpantotenate blood concentration, Cyno #2","[1]; male cynomolgus monkeys, 8 hr",BQL
same,concentration at 0.083 h,[1]; [5],0.197 µM
same,concentration at 0.167 h,[1]; [5],0.906 µM
same,concentration at 0.333 h,[1]; [5],0.55 µM
same,concentration at 0.5 h,[1]; [5],0.376 µM
same,concentration at 1 h,[1]; [5],18.7 µM
same,concentration at 2 h,[1]; [5],13.2 µM
same,concentration at 4 h,[1]; [5],0.249 µM
same,concentration at 0.083 h,[1]; [6],0.0419 µM
same,concentration at 0.167 h,[1]; [6],0.0938 µM
same,concentration at 0.333 h,[1]; [6],0.128 µM
same,concentration at 0.5 h,[1]; [6],0.211 µM
same,concentration at 1 h,[1]; [6],9.95 µM
same,concentration at 2 h,[1]; [6],3.46 µM
same,concentration at 4 h,[1]; [6],0.231 µM
same,concentration at 0.083 h,[1]; [7],0.351 µM
same,concentration at 0.167 h,[1]; [7],1.72 µM
same,concentration at 0.333 h,[1]; [7],0.972 µM
same,concentration at 0.5 h,[1]; [7],0.541 µM
same,concentration at 1 h,[1]; [7],27.4 µM
same,concentration at 2 h,[1]; [7],22.9 µM
same,concentration at 4 h,[1]; [7],0.267 µM
same,half-life at 1 μM,"[2]; pH 7.4, 1 μM, NADPH",8 min
same,microsomal CLint at 1 μM,"[2]; pH 7.4, read-out: intrinsic clearance",335 µL/min/mg
same,Conc.,"[3]; fosmetpantotenate 100 mg/kg PO, 0.033 hr, individual animals",6.22 nM and BQL and 218.78 ^(a) nM and 9.40 nM
same,Conc.,"[3]; fosmetpantotenate 100 mg/kg PO, 0.083 hr, individual animals",BQL and 1.94 nM
same,Conc.,"[3]; fosmetpantotenate 100 mg/kg PO, 0.167 hr, individual animals",BQL and 2.30 nM
same,Conc.,"[3]; fosmetpantotenate 100 mg/kg PO, 0.333 hr, individual animals",2.38 nM and 1.98 nM
same,Conc.,"[3]; fosmetpantotenate 100 mg/kg PO, 0.5 hr, individual animals",BQL and 1.43 nM
same,Conc.,"[3]; fosmetpantotenate 100 mg/kg PO, 1 hr, individual animals",BQL and 1.77 nM
same,Conc.,"[3]; fosmetpantotenate 100 mg/kg PO, 2 hr, individual animals",BQL
same,Mean Conc.,"[3]; fosmetpantotenate 100 mg/kg PO, 4 hr",BQL
same,Conc.,"[3]; fosmetpantotenate 100 mg/kg PO, 4 hr, individual animals",BQL
same,Mean Conc.,"[3]; fosmetpantotenate 100 mg/kg PO, 8 hr",BQL
same,Conc.,"[3]; fosmetpantotenate 100 mg/kg PO, 8 hr, individual animals",BQL
same,Conc.,"[3]; fosmetpantotenate 300 mg/kg PO, 0.033 hr, individual animals",1.41 nM and 49.95 nM and 66.65 nM and 2.76 nM
same,Conc.,"[3]; fosmetpantotenate 300 mg/kg PO, 0.083 hr, individual animals",5.50 nM and 4.59 nM and 18.72 nM and 28.96 nM
same,Conc.,"[3]; fosmetpantotenate 300 mg/kg PO, 0.167 hr, individual animals",1.62 nM and 1.56 nM and 3.71 nM and BQL
same,Conc.,"[3]; fosmetpantotenate 300 mg/kg PO, 0.333 hr, individual animals",1.22 nM and 1.07 nM and 1.14 nM
same,Conc.,"[3]; fosmetpantotenate 300 mg/kg PO, 0.5 hr, individual animals",1.14 nM and 1.24 nM
same,Conc.,"[3]; fosmetpantotenate 300 mg/kg PO, 1 hr, individual animals",BQL
same,Mean Conc.,"[3]; fosmetpantotenate 300 mg/kg PO, 2 hr",BQL
same,Conc.,"[3]; fosmetpantotenate 300 mg/kg PO, 2 hr, individual animals",BQL
same,Conc.,"[3]; fosmetpantotenate 300 mg/kg PO, 4 hr, individual animals",BQL
same,Mean Conc.,"[3]; fosmetpantotenate 300 mg/kg PO, 8 hr",BQL
same,Conc.,"[3]; fosmetpantotenate 300 mg/kg PO, 8 hr, individual animals",BQL
same,Fosmetpantotenate Conc.,"[3]; male CD-1 mice, fosmetpantotenate 700 mg/kg oral, 0.033 hr, individual animals, BQL <1.02 nM",61.71 nM and 230.17 nM and 51.34 nM and 195.45 nM
same,Fosmetpantotenate Conc.,"[3]; male CD-1 mice, fosmetpantotenate 700 mg/kg oral, 0.083 hr, individual animals, BQL <1.02 nM",24.28 nM and 3756.01(a) nM and 8.28 nM and 16.06 nM
same,Fosmetpantotenate Conc.,"[3]; male CD-1 mice, fosmetpantotenate 700 mg/kg oral, 0.167 hr, individual animals, BQL <1.02 nM",575.42 nM and 158.08 nM and 6.93 nM and 488.15 nM
same,Fosmetpantotenate Conc.,"[3]; male CD-1 mice, fosmetpantotenate 700 mg/kg oral, 0.333 hr, individual animals, BQL <1.02 nM",22.76 nM
same,Fosmetpantotenate Conc.,"[3]; male CD-1 mice, fosmetpantotenate 700 mg/kg oral, 0.5 hr, individual animals, BQL <1.02 nM",3.33 nM and 21.75 nM and 6.47 nM and 283.28 nM
same,Fosmetpantotenate Conc.,"[3]; male CD-1 mice, fosmetpantotenate 700 mg/kg oral, 1 hr, individual animals, BQL <1.02 nM",128.99 nM and 6.41 nM and 3.33 nM and 67.53 nM
same,Fosmetpantotenate Conc.,"[3]; male CD-1 mice, fosmetpantotenate 700 mg/kg oral, 2 hr, individual animals, BQL <1.02 nM",1.29 nM and 1.18 nM and 1.64 nM and 16.31 nM
same,Fosmetpantotenate Conc.,"[3]; male CD-1 mice, fosmetpantotenate 700 mg/kg oral, 4 hr, individual animals, BQL <1.02 nM",BQL
same,Fosmetpantotenate Conc.,"[3]; male CD-1 mice, fosmetpantotenate 700 mg/kg oral, 8 hr, individual animals, BQL <1.02 nM",BQL
same,Fosmetpantotenate Mean Conc.,"[3]; male CD-1 mice, fosmetpantotenate 700 mg/kg oral, 8 hr, mean, BQL <1.02 nM",BQL
same,concentration at 0.083 h,"[3]; male, CD-1, mouse, in vivo, 100 mg/kg, Conc., fosmetpantotenate 100 mg/kg PO, 0.083 hr, individual animals",0.002 µM
same,concentration at 0.167 h,"[3]; male, CD-1, mouse, in vivo, 100 mg/kg, Conc., fosmetpantotenate 100 mg/kg PO, 0.167 hr, individual animals",0.00131 µM
same,concentration at 0.333 h,"[3]; male, CD-1, mouse, in vivo, 100 mg/kg, Conc., fosmetpantotenate 100 mg/kg PO, 0.333 hr, individual animals",0.00131 µM
same,concentration at 0.5 h,"[3]; male, CD-1, mouse, in vivo, 100 mg/kg, Conc., fosmetpantotenate 100 mg/kg PO, 0.5 hr, individual animals",0.00135 µM
same,concentration at 1 h,"[3]; male, CD-1, mouse, in vivo, 100 mg/kg, Conc., fosmetpantotenate 100 mg/kg PO, 1 hr, individual animals",0.00126 µM
same,concentration at 2 h,"[3]; male, CD-1, mouse, in vivo, 100 mg/kg, Conc., fosmetpantotenate 100 mg/kg PO, 2 hr, individual animals",0.00297 µM
same,concentration at 0.033 h,"[3]; male, CD-1, mouse, in vivo, 100 mg/kg, Mean Conc., fosmetpantotenate 100 mg/kg PO, 0.033 hr",0.00781 µM
same,concentration at 0.083 h,"[3]; male, CD-1, mouse, in vivo, 100 mg/kg, Mean Conc., fosmetpantotenate 100 mg/kg PO, 0.083 hr",0.00197 µM
same,concentration at 0.167 h,"[3]; male, CD-1, mouse, in vivo, 100 mg/kg, Mean Conc., fosmetpantotenate 100 mg/kg PO, 0.167 hr",0.0018 µM
same,concentration at 0.333 h,"[3]; male, CD-1, mouse, in vivo, 100 mg/kg, Mean Conc., fosmetpantotenate 100 mg/kg PO, 0.333 hr",0.00174 µM
same,concentration at 0.5 h,"[3]; male, CD-1, mouse, in vivo, 100 mg/kg, Mean Conc., fosmetpantotenate 100 mg/kg PO, 0.5 hr",0.00139 µM
same,concentration at 1 h,"[3]; male, CD-1, mouse, in vivo, 100 mg/kg, Mean Conc., fosmetpantotenate 100 mg/kg PO, 1 hr",0.00152 µM
same,concentration at 2 h,"[3]; male, CD-1, mouse, in vivo, 100 mg/kg, Mean Conc., fosmetpantotenate 100 mg/kg PO, 2 hr",0.00297 µM
same,concentration at 0.333 h,"[3]; male, CD-1, mouse, in vivo, 300 mg/kg, Conc., fosmetpantotenate 300 mg/kg PO, 0.333 hr, individual animals",0.00143 µM
same,concentration at 0.5 h,"[3]; male, CD-1, mouse, in vivo, 300 mg/kg, Conc., fosmetpantotenate 300 mg/kg PO, 0.5 hr, individual animals",0.00183 µM
same,concentration at 1 h,"[3]; male, CD-1, mouse, in vivo, 300 mg/kg, Conc., fosmetpantotenate 300 mg/kg PO, 1 hr, individual animals",0.00114 µM
